Columns and labels:
[1] = molecular target: Fibroblast growth factor receptor 1 (Homo sapiens) (UniProt P11362); experiment: Inhibition of human N-terminal GST-tagged FGFR1 cytoplasmic domain (398 to 822 residues) expressed in baculovirus expression system using fluorescence labelled CSKtide as substrate at 50 times IC50 by electrophoretic mobility shift assay relative to control
[2] = molecular target: T1, Tyrosine-protein kinase JAK3 (Homo sapiens) (UniProt P52333); experiment: Inhibition of human N-terminal His-tagged JAK3 catalytic domain (795 to 1124 residues) expressed in baculovirus expression system using fluorescence labelled srctide as substrate at 50 times IC50 by electrophoretic mobility shift assay relative to control
T1 sequence (whole entry): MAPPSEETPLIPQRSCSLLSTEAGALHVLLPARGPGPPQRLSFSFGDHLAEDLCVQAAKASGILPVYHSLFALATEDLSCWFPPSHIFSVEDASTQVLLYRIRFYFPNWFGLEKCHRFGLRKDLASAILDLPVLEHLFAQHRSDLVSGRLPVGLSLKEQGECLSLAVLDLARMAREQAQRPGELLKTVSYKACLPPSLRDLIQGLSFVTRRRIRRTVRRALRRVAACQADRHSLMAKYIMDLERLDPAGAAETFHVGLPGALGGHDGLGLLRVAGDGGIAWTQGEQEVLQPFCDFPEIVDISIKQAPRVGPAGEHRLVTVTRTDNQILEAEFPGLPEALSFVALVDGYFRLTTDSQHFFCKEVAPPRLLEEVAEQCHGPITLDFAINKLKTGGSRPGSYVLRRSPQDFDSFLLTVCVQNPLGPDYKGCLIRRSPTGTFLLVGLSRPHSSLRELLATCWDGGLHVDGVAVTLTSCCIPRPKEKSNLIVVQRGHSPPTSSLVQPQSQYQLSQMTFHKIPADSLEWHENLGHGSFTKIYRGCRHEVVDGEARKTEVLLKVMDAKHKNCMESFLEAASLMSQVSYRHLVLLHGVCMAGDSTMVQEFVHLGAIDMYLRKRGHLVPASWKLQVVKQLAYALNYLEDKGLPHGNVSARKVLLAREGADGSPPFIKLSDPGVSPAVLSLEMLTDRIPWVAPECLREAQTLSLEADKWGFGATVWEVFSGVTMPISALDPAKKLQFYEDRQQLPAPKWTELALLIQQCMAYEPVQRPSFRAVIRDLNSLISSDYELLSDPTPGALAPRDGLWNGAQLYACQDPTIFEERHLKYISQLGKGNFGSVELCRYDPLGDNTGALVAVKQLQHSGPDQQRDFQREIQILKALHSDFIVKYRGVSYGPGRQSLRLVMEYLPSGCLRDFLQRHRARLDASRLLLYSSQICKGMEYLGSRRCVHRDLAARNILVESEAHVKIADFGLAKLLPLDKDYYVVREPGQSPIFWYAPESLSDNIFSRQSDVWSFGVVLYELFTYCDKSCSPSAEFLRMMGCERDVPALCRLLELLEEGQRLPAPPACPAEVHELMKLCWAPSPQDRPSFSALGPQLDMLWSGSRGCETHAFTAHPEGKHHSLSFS

[3] = molecular target: Serine/threonine-protein kinase PAK 2 (Homo sapiens) (UniProt Q13177); experiment: Inhibition of full length human N-terminal GST-tagged PAK2 (1 to 524 residues) expressed in baculovirus expression system using fluorescence labelled DAPK1tide as substrate at 50 times IC50 by electrophoretic mobility shift assay relative to control
Serine/threonine-protein kinase PAK 2 (Homo sapiens), sequence (Q13177 whole entry, the tested form may be a part): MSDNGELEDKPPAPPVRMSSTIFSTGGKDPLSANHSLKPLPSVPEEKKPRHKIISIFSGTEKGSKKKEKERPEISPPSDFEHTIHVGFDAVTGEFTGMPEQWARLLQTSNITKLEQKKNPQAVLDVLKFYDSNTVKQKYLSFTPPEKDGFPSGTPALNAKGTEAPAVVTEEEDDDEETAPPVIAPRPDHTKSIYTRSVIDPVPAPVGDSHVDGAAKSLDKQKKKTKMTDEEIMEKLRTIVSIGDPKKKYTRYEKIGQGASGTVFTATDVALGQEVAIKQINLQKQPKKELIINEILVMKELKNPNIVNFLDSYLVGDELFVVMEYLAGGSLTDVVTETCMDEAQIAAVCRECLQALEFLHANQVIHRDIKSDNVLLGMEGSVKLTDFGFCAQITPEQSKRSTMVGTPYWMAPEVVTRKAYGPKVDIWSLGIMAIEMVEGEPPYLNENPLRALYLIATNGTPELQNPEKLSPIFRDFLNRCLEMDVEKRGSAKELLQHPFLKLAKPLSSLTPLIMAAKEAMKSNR

[4] = molecular target: Receptor-type tyrosine-protein kinase FLT3 (Homo sapiens) (UniProt P36888); experiment: Inhibition of human N-terminal GST-tagged FLT3 cytoplasmic domain (564 to 993 residues) expressed in baculovirus expression system using fluorescence labelled srctide as substrate at 50 times IC50 by electrophoretic mobility shift assay relative to control
[5] = molecular target: Mitogen-activated protein kinase 14 (Homo sapiens) (UniProt Q16539); experiment: Inhibition of human N-terminal GST-tagged p38alpha (9 to 352 residues) expressed in Escherichia coli using fluorescence labelled modified Erktide as substrate at 50 times IC50 by electrophoretic mobility shift assay relative to control
Mitogen-activated protein kinase 14 (Homo sapiens), sequence (Q16539 whole entry, the tested form may be a part): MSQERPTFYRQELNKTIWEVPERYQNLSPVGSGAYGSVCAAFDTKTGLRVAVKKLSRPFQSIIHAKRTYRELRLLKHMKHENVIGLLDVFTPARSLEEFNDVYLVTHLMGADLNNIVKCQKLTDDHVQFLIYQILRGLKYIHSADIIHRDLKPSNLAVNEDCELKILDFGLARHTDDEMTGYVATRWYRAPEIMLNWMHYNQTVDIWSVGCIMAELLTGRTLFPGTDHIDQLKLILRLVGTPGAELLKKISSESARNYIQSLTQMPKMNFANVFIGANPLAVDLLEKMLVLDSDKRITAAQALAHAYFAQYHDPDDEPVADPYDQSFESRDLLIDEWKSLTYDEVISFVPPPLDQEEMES

[6] = molecular target: T2, Receptor-type tyrosine-protein kinase FLT3 (Homo sapiens, UniProt P36888); experiment: Inhibition of human N-terminal GST-tagged FLT3 cytoplasmic domain (564 to 993 residues) expressed in baculovirus expression system using 5-FAM-peptide 2 as substrate after 2 hrs by electrophoretic mobility shift assay in presence of ATP
T2 sequence (P36888 whole entry): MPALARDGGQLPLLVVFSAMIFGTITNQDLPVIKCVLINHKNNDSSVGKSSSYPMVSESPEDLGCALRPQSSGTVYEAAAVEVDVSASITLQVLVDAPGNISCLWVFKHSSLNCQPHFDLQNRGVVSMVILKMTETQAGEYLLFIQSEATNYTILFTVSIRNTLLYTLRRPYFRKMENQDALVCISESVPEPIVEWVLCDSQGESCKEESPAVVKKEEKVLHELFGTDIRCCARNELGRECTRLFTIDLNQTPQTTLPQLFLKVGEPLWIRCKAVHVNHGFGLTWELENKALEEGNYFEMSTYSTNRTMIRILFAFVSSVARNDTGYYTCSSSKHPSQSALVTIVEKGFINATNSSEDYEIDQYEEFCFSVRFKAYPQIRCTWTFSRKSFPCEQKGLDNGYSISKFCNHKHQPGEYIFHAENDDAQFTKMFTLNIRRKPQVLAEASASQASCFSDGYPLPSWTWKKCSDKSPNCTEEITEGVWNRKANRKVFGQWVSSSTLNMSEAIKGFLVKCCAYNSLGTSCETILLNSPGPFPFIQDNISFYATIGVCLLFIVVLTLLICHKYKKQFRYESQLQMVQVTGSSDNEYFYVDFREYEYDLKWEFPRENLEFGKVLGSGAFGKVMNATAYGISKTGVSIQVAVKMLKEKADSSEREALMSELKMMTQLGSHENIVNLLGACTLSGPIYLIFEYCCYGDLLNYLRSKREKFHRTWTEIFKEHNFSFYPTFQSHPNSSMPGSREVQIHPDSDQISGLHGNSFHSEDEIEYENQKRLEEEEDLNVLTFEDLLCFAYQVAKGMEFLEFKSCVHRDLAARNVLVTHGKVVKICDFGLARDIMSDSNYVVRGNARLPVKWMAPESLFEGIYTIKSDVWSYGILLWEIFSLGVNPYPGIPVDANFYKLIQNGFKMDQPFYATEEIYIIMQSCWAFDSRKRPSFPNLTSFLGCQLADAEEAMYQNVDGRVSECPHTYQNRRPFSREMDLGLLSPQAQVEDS

[7] = molecular target: Vascular endothelial growth factor receptor 2 (Homo sapiens) (UniProt P35968); experiment: Inhibition of human N-terminal GST-tagged KDR cytoplasmic domain (790 to 1356 residues) expressed in baculovirus expression system using fluorescence labelled CSKtide as substrate at 50 times IC50 by electrophoretic mobility shift assay relative to control
Vascular endothelial growth factor receptor 2 (Homo sapiens), sequence (P35968 whole entry, the tested form may be a part): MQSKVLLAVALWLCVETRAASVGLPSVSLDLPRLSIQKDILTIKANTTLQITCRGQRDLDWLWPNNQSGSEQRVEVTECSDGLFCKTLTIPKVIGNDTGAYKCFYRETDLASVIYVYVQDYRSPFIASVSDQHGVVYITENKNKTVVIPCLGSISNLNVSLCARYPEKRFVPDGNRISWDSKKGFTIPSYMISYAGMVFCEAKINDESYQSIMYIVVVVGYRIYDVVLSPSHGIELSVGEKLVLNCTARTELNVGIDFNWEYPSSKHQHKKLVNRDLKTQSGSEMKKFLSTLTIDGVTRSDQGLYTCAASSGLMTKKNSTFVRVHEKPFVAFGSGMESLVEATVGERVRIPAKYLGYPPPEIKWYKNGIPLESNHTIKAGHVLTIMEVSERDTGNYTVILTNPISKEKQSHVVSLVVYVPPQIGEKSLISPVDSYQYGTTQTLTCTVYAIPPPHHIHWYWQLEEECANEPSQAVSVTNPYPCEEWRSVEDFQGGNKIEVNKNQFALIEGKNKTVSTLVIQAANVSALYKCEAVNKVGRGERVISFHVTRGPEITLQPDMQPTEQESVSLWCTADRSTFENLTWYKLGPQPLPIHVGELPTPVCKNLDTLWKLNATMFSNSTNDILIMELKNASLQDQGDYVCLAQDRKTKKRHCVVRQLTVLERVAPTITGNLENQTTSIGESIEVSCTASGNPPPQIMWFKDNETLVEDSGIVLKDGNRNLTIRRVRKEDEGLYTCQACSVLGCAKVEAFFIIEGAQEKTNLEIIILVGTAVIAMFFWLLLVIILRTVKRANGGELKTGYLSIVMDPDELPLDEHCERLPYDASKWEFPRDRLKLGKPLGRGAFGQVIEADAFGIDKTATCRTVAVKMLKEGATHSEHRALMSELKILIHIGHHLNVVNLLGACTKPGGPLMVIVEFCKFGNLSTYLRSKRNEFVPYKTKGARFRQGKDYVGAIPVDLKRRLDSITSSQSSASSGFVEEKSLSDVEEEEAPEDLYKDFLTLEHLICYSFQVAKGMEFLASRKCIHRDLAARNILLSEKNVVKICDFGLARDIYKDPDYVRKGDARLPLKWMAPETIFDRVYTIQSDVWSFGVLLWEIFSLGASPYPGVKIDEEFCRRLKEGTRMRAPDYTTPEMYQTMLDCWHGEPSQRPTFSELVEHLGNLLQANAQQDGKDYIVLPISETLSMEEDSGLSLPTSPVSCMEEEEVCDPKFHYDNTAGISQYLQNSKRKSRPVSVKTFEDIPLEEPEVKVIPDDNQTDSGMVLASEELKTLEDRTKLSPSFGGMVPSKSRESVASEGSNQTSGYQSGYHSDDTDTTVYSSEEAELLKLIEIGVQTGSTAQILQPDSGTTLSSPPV

[8] = molecular target: Ribosomal protein S6 kinase beta-1 (Homo sapiens) (UniProt P23443); experiment: Inhibition of human N-terminal GST-tagged p70S6K catalytic domain (1 to 421 residues) expressed in baculovirus expression system coexpressing His-tagged PDK1 (1 to 556 residues) using fluorescence labelled S6K2 peptide substrate at 50 times IC50 by electrophoretic mobility shift assay relative to control
Ribosomal protein S6 kinase beta-1 (Homo sapiens), sequence (P23443 whole entry, looked up, the tested form may be a part): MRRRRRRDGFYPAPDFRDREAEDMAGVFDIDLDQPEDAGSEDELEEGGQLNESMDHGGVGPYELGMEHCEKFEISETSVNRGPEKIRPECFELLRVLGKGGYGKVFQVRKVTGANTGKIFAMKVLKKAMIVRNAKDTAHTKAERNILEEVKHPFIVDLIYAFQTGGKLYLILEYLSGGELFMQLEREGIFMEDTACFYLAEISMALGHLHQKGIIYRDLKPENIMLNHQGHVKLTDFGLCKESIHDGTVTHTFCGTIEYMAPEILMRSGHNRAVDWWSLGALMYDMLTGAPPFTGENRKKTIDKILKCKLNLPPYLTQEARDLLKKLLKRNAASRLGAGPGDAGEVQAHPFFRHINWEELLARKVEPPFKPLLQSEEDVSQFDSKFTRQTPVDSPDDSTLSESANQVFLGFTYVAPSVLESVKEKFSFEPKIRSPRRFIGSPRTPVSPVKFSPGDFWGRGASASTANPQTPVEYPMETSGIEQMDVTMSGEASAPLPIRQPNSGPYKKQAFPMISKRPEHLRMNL

Fibroblast growth factor receptor 1 (Homo sapiens), sequence (P11362 22-822 limits assumed): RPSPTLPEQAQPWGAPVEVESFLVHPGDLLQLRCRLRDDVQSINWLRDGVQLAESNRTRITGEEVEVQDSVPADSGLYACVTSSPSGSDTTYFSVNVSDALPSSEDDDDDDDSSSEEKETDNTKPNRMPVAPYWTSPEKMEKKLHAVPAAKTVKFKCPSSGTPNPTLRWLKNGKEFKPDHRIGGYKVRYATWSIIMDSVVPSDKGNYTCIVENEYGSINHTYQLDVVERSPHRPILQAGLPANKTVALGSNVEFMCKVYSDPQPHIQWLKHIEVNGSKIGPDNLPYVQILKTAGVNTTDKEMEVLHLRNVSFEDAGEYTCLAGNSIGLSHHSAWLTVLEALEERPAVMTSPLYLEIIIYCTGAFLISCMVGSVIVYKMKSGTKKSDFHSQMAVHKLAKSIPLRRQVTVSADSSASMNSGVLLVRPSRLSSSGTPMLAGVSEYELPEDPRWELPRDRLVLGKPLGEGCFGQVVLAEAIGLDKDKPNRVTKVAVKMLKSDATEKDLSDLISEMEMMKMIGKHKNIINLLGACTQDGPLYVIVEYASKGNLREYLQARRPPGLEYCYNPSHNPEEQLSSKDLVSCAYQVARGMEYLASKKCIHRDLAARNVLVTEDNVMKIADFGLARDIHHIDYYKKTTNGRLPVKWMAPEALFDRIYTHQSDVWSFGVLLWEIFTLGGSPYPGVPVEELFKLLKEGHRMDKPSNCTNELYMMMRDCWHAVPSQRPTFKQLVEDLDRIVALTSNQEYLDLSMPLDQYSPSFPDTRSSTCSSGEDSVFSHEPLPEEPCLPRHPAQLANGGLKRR

SMILES | inhibition [1] [%] | inhibition [2] [%] | inhibition [3] [%] | inhibition [4] [%] | inhibition [5] [%] | IC50 [6] [nM] | inhibition [7] [%] | inhibition [8] [%]
O=C(Nc1ccc(CN2CCN(c3ccccc3)CC2)cc1)c1n[nH]c2ccccc12 | -1 | 9 | 0.6 | 100 | -2.6 | 10 | 15.8 | 17.8
O=C(Nc1ccc(C(=O)N2CCN(c3ccccc3)CC2)cc1)c1n[nH]c2ccccc12 | 6.3 | 26.4 | -1.6 | 99.7 | -1.8 | 34 | 34.2 | 43
O=C(Nc1ccccc1)c1n[nH]c2ccccc12 | 17 | 51.9 | 0.8 | 96.7 | 6.9 | 417 | 44.2 | 47.3
